One data set deals with Physalospora piricola. In words: Fungicidal activity, fungicide growth rate method, PP. In kind it is cell-based. Particulars: read-out: fungicidal activity (growth inhibition rate), PP.
For data set [1], the system named is Helicoverpa armigera (Hübner). In words: Insecticidal activity against Helicoverpa armigera (Hübner). In kind it is in vivo. Conditions: Helicoverpa armigera; 100 μg/mL; read-out: insecticidal activity, Helicoverpa armigera (Hübner).
The subject of another data set is Ostrinia furnacalis. The data set can be described thus: Insecticidal activity against Ostrinia furnacalis. In kind it is in vivo. Conditions: Ostrinia furnacalis; 100 μg/mL; read-out: insecticidal activity, Ostrinia furnacalis.
The test system of a further data set is Cercospora arachidicola. The data set can be described thus: Fungicidal activity, fungicide growth rate method, CA. Particulars: Mycosphaerella arachidis, read-out: fungicidal activity (growth inhibition rate), CA. The format is cell-based.
In the next data set the test system is Caenorhabditis elegans. In words: Insecticidal activity against Caenorhabditis elegans. The format is in vivo. Particulars: Caenorhabditis elegans, 100 μg/mL; read-out: insecticidal activity, Caenorhabditis elegans.
Data set [2] deals with Phytophthora infestans (Mont.) de Bary. The data set can be described thus: microbe, parasite or virus in culture. In kind it is cell-based. Particulars: Phytophthora infestans, read-out: fungicidal activity (growth inhibition rate), PI, 50 μg/mL.
Data set [3] relates to Mythimna separate (Walker). The data set can be described thus: Insecticidal activity against Mythimna separate (Walker). In kind it is in vivo. Particulars: Mythimna, 100 μg/mL; read-out: insecticidal activity, Mythimna separate (Walker).
The subject of a further data set is Pellicularia sasakii. In words: Fungicidal activity, fungicide growth rate method, PS. The format is cell-based. Particulars: read-out: fungicidal activity (growth inhibition rate), PS.
In data set [4] the test system is Apis mellifera ligustica Spin. Conditions: for Death number after 24 h / Death number after 48 h: per replicate of 10 bees.
Another data set deals with wheat Gibberella zeae. In words: microbe, parasite or virus in culture. In kind it is cell-based. Conditions: Fusarium graminearum, read-out: fungicidal activity (growth inhibition rate), GZ, 50 μg/mL.
Another data set relates to Rhizoctonia cerealis. In words: Fungicidal activity, fungicide growth rate method, RC. Particulars: for inhibition at 50 µg/mL: Ceratobasidium cereale, read-out: fungicidal activity (growth inhibition rate), RC. The format is cell-based.
The next data set has as its system Botrytis cinerea. The data set can be described thus: Fungicidal activity, fungicide growth rate method, BC. In kind it is cell-based. Particulars: Botrytis cinerea, read-out: fungicidal activity (growth inhibition rate), BC.
A further data set relates to Alternaria solani. In words: Fungicidal activity, fungicide growth rate method, AS. In kind it is cell-based. Conditions: Alternaria solani, read-out: fungicidal activity (growth inhibition rate), AS.

Several values for one entry are separate records, joined by “and”; a condition that tells them apart may be missing. Equal values may be shown once. Read-outs that look alike come from different tables or passages of the source. A value given as a limit tells only on which side of the number the result lay.

Consider eleven molecules from US11716992B2, “5A5B6C tricyclic spirolactone derivative, preparation method therefor and use thereof” (NANKAI UNIVERSITY, priority 2017, dated 2023).

Regarding `C=CC[C@@H]1C[C@]2(O)CCO[C@@]23CC=CC[C@H]13` [Zyj07-30], the inhibition at 50 µg/mL in the data set on Physalospora piricola (50 μg/mL) worked out at 0%; in the data set on Cercospora arachidicola (50 μg/mL), 14%; in data set [2], 15%; in the data set on Pellicularia sasakii (50 μg/mL) it was 27%; with wheat Gibberella zeae, 3%; with Rhizoctonia cerealis (50 μg/mL) it was 13%. Moreover, the inhibition at 50 µg/mL with Botrytis cinerea (50 μg/mL) was found to be 39%; in the data set on Alternaria solani (50 μg/mL), 0%. For the same molecule, the pest or weed control at 100 µg/mL in data set [1] was found to be 0%; in the data set on Ostrinia furnacalis it was 0%; in the data set on Caenorhabditis elegans, 7%; in data set [3], 0%. Moreover, the “Death rate after 48 h (%)” value was 15.0% in data set [4] (dosage 9.77 μg a.i./bee) and 5.0% in data set [4] (dosage 19.8 μg a.i./bee). Further, the “Death number after 24 h” value in data set [4] (dosage 9.77 μg a.i./bee) and in data set [4] (dosage 19.8 μg a.i./bee) was 0 in each case. Also, the “Death number after 48 h” value in data set [4] (dosage 9.77 μg a.i./bee) is 1 and 2; in data set [4] (dosage 19.8 μg a.i./bee), 1 and 0.
For the molecule `CCOC(=O)C(C(=O)OCC)C1C[C@]2(O)C(C(=O)OCC)C(=O)O[C@@]23CC=CC[C@H]13` (stereo partly shown) [Zyj06-113-3], the pest or weed control at 100 µg/mL in data set [1] is 0%; in the data set on Ostrinia furnacalis, 0%; in the data set on Caenorhabditis elegans, 5%; in data set [3] it was 0%. In addition, the inhibition at 50 µg/mL in the data set on Cercospora arachidicola (50 μg/mL) is over 50%; in data set [2], 11%; with Pellicularia sasakii (50 μg/mL), 11%; with wheat Gibberella zeae it was 43%; with Rhizoctonia cerealis (50 μg/mL), 32%; in the data set with Botrytis cinerea (50 μg/mL) it was over 50%. Besides, the results for the “Death rate after 48 h (%)” value in data set [4] (dosage 9.87 μg a.i./bee) and in data set [4] (dosage 15.2 μg a.i./bee) were 0% and 10.0%, respectively. Moreover, the “Death number after 24 h” value in [4] (dosage 9.87 μg a.i./bee) and in data set [4] (dosage 15.2 μg a.i./bee) was 0 each time. The “Death number after 48 h” value came to 0 in data set [4] (dosage 9.87 μg a.i./bee) and 1 in data set [4] (dosage 15.2 μg a.i./bee).
As to `C[Si](C)(C)O[C@]12CC=CC[C@@H]1C=CC2=O` [Zyj06-82], the inhibition at 50 µg/mL in the data set on Physalospora piricola stood at 40%; in the data set with Cercospora arachidicola, 24%; in data set [2] it was 16%; with Pellicularia sasakii, 23%; in the data set on wheat Gibberella zeae it was 0%; in the data set with Rhizoctonia cerealis it was 43%. In addition, the results for the inhibition at 50 µg/mL with Botrytis cinerea and with Alternaria solani were over 50% and 14%, respectively. For the same molecule, the pest or weed control at 100 µg/mL in [1] worked out at 5%; in the data set on Ostrinia furnacalis, 5%; with Caenorhabditis elegans, 8%; in data set [3], 25%.
On to `C=CC[C@@H]1C[C@@]2(O)C[C@@H](CC=C)[C@H]3CC[C@@H](O)C[C@@]32O1` [Zyj07-69], for which the pest or weed control at 100 µg/mL in data set [1] was determined as 15%; in the data set with Ostrinia furnacalis it was 10%; with Caenorhabditis elegans, 10%; in data set [3], 25%. Moreover, the “Death rate after 48 h (%)” value in data set [4] (dosage 9.71 μg a.i./bee) is on record as 5.0%. Also, the “Death number after 24 h” value in data set [4] (dosage 9.71 μg a.i./bee) was 0. Further, the “Death number after 48 h” value in data set [4] (dosage 9.71 μg a.i./bee) is 0 and 1.
For `C=CC[C@@H]1C[C@]2(O)CC(=O)O[C@@]23C[C@@H](Cl)[C@H](O)C[C@H]13` [Zyj07-14], the inhibition at 50 µg/mL was found to be 31% with Physalospora piricola (50 μg/mL); 31% in the data set with Cercospora arachidicola (50 μg/mL); 2% in data set [2]; 15% with Pellicularia sasakii (50 μg/mL); 43% with wheat Gibberella zeae; 51% with Rhizoctonia cerealis (50 μg/mL). Also, the inhibition at 50 µg/mL with Botrytis cinerea (50 μg/mL) was over 50%; in the data set on Alternaria solani (50 μg/mL), 15%. Also, in the data set with Caenorhabditis elegans, the pest or weed control at 100 µg/mL was 20%.
Regarding `O=C1CCC23CC=CCC12O3` (stereo not shown) [Zyj06-39], the pest or weed control at 100 µg/mL in data set [1] is 0%; with Ostrinia furnacalis it was 0%; in the data set on Caenorhabditis elegans it was over 30%; in data set [3], 10%. For the same molecule, the results for the inhibition at 50 µg/mL (in [2]; in the data set with Botrytis cinerea (50 μg/mL); in the data set on Alternaria solani (50 μg/mL)) were 27%, 36% and over 60%, respectively. Further, the “fungicidal activity (growth inhibition rate), RC” value with Rhizoctonia cerealis (50 μg/mL) was 93%.
Turning to `C=CC[C@@H]1C[C@@]2(OC(C)=O)C[C@@H](CC=C)[C@H]3CC=CC[C@@]32O1` [Zyj07-38], the pest or weed control at 100 µg/mL in data set [1] is 10%; with Ostrinia furnacalis, 5%; with Caenorhabditis elegans it was over 30%; in data set [3], 15%. In the data set on Cercospora arachidicola (50 μg/mL), the inhibition at 50 µg/mL was over 50%.
Regarding `O=C1C[C@@]2(O)CC[C@H]3C[C@@H](O)[C@@H](Cl)C[C@@]32O1` [Zyj07-103], the inhibition at 50 µg/mL in the data set on Physalospora piricola (50 μg/mL) was over 50%; in the data set with Cercospora arachidicola (50 μg/mL) it was 38%; in data set [2] it was 42%; in the data set with Pellicularia sasakii (50 μg/mL), 0%; with wheat Gibberella zeae it was 47%; with Rhizoctonia cerealis (50 μg/mL), 4%. Also, the inhibition at 50 µg/mL in the data set on Botrytis cinerea (50 μg/mL) was 27%. Also, the figures for the pest or weed control at 100 µg/mL (in data set [1]; in the data set on Ostrinia furnacalis; in data set [3]) were 15%, 10% and over 30%, respectively.
In the case of `C=CC[C@@H]1CC(=O)[C@@]2(O)CC=CC[C@H]12` [Zyj06-177], the inhibition at 50 µg/mL with Physalospora piricola (50 μg/mL) is 11%; in the data set with Cercospora arachidicola (50 μg/mL), 46%; in [2], 11%; in the data set with Pellicularia sasakii (50 μg/mL), 19%; in the data set with wheat Gibberella zeae, 0%; with Rhizoctonia cerealis (50 μg/mL), 61%. Moreover, the inhibition at 50 µg/mL was 48% in the data set on Botrytis cinerea (50 μg/mL) and 12% with Alternaria solani (50 μg/mL). Besides, the pest or weed control at 100 µg/mL (in data set [1]; in the data set with Ostrinia furnacalis; in [3]) was 0% in each case. For the same molecule, the “Death rate after 48 h (%)” value in data set [4] (dosage 8.17 μg a.i./bee) and in data set [4] (dosage 9.46 μg a.i./bee) was 0% in each case. Besides, the “Death number after 24 h” value in [4] (dosage 8.17 μg a.i./bee) and in data set [4] (dosage 9.46 μg a.i./bee) was 0 each time. Moreover, the “Death number after 48 h” value in data set [4] (dosage 8.17 μg a.i./bee) and in data set [4] (dosage 9.46 μg a.i./bee) was 0 throughout.
On to `C=CCC1CC2(O)CC(CC=C)C3CC=CCC32O1` (racemic) [Zyj-7-98], for which, in data set [4] (dosage 12.0 μg a.i./bee), the “Death rate after 48 h (%)” value is reported as 0%, the “Death number after 24 h” value is recorded as 0 and the “Death number after 48 h” value was determined as 0.
In the case of `C=CC[C@@H]1C[C@]2(OC(C)=O)C[C@@H](OC(C)=O)O[C@@]23C[C@H]2O[C@H]2C[C@H]13` [Zyj07-65-1], the pest or weed control at 100 µg/mL worked out at 10% in data set [1], 5% in the data set on Ostrinia furnacalis, 12% with Caenorhabditis elegans and 25% in data set [3]. The “Death rate after 48 h (%)” value in [4] (dosage 7.54 μg a.i./bee) and in [4] (dosage 18.1 μg a.i./bee) was 10.0% each time. Besides, the “Death number after 24 h” value in [4] (dosage 7.54 μg a.i./bee) is 0 and 1; in [4] (dosage 18.1 μg a.i./bee) it was 0 and 1. Also, the “Death number after 48 h” value is 0 and 2 in data set [4] (dosage 7.54 μg a.i./bee); 0 and 2 in data set [4] (dosage 18.1 μg a.i./bee).
